Data: patent US11446287B2, “Compounds and methods for EP300 or CBP modulation and indications therefor” (Opna Immuno-Oncology SA, priority 2019, dated 2022)
pIC50: −log10 of the molar value.

Molecular target: T1, Recombinant human EP300 containing the bromodomain (EP300-BD (1040-1161)) (Homo sapiens, UniProt Q09472)
T1 construct: Recombinant human EP300 bromodomain (EP300-BD (1040-1161)); made in house; host or cells: E. coli BL21-CodonPlus (DE3), modified pET vector
T1 sequence (Q09472 1040-1161): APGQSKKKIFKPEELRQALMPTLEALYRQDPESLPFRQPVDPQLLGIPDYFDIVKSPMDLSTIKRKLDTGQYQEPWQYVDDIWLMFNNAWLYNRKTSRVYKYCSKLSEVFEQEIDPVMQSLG
Experiment: EP300 Alphascreen binding assay
Summary of the method: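 Displacement of a biotinylated acetyl-K56 histone H3 peptide from the N-His bromodomain construct (1040-1161) measured by AlphaScreen proximity, beads at 7.5 μg/ml final, read 60 min after addition. Protein, peptide and compound first incubated 1 h at room temperature, pH 7.5 HEPES buffer; IC50 by four-parameter logistic fit.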

| Structure (SMILES) | pIC50 |
| --- | --- |
| Cc1noc(C)c1-c1cnc2c(c1)c(-c1c(Cl)cc(C(=O)O)cc1OC(C)C)cn2C1(C)CCOCC1 [P-0404, 3-chloro-4-(5-(3,5-dimethylisoxazol-4-yl)-1-(4-methyltetrahydro-2H-pyran-4-yl)-1H-pyrrolo[2,3-b]pyridin-3-yl)-5-isopropoxybenzoic acid] | 6.00 to 10.00 |
| Cc1noc(C)c1-c1cnc2c(c1)c(-c1cccc(C(=O)O)c1)cn2Cc1ccccn1 [P-0049, 3-(5-(3,5-dimethylisoxazol-4-yl)-1-(pyridin-2-ylmethyl)-1H-pyrrolo[2,3-b]pyridin-3-yl)benzoic acid] | 6.00 to 10.00 |
| Cc1noc(C)c1-c1cnc2c(c1)c(-c1c(Cl)cc(C(=O)O)cc1OC1CC1)cn2-c1ncccc1C#N [P-0409, 3-chloro-4-(1-(3-cyanopyridin-2-yl)-5-(3,5-dimethylisoxazol-4-yl)-1H-pyrrolo[2,3-b]pyridin-3-yl)-5-cyclopropoxybenzoic acid] | 6.00 to 10.00 |
| CCOc1nc(C(=O)O)cc(C)c1-c1cn(-c2ccc(F)cc2F)c2ncc(-c3c(C)noc3C)cc12 [P-0412, 5-(1-(2,4-difluorophenyl)-5-(3,5-dimethylisoxazol-4-yl)-1H-pyrrolo[2,3-b]pyridin-3-yl)-6-ethoxy-4-methylpicolinic acid] | 6.00 to 10.00 |
| Cc1nnn(C)c1-c1cnc2c(c1)c(-c1cccc(C(=O)O)c1)cn2[C@@H](C)c1ccccn1 [P-0449, (S)-3-(5-(1,4-dimethyl-1H-1,2,3-triazol-5-yl)-1-(1-(pyridin-2-yl)ethyl)-1H-pyrrolo[2,3-b]pyridin-3-yl)benzoic acid] | 6.00 to 10.00 |
| Cc1noc(C)c1-c1cnc2c(c1)c(-c1c(F)cc(C(=O)O)cc1OC1CC1)cn2C(C1CC1)C1CC1 [P-0394, 3-cyclopropoxy-4-(1-(dicyclopropylmethyl)-5-(3,5-dimethylisoxazol-4-yl)-1H-pyrrolo[2,3-b]pyridin-3-yl)-5-fluorobenzoic acid] | 6.00 to 10.00 |
| Cc1noc(C)c1-c1cnc2c(c1)c(-c1ccc(C(=O)O)cc1OC(F)(F)F)cn2C1CCC(C#N)C1 (stereo not shown) [P-0389, 4-(1-(3-cyanocyclopentyl)-5-(3,5-dimethylisoxazol-4-yl)-1H-pyrrolo[2,3-b]pyridin-3-yl)-3-(trifluoromethoxy)benzoic acid] | 6.00 to 10.00 |
| Cc1noc(C)c1-c1cnc2c(c1)c(-c1cnn(CC(=O)O)c1)cn2C(c1ccccn1)C1CCCC1 (stereo not shown) [P-0036, 2-(4-(1-(cyclopentyl(pyridin-2-yl)methyl)-5-(3,5-dimethylisoxazol-4-yl)-1H-pyrrolo[2,3-b]pyridin-3-yl)-1H-pyrazol-1-yl)acetic acid] | 6.00 to 10.00 |
| CCOc1cc(C(=O)O)c(F)cc1-c1cn(C2CCN(C(=O)OC(C)(C)C)CC2)c2ncc(-c3c(C)noc3C)cc12 [P-0442, 4-(1-(1-(tert-butoxycarbonyl)piperidin-4-yl)-5-(3,5-dimethylisoxazol-4-yl)-1H-pyrrolo[2,3-b]pyridin-3-yl)-5-ethoxy-2-fluorobenzoic acid] | 6.00 to 10.00 |
| Cc1noc(C)c1-c1cnc2c(c1)c(-c1cc(F)c(C(=O)O)cc1OC(F)(F)F)cn2-c1ccc(C2CC2)nc1 [P-0444, 4-(1-(6-cyclopropylpyridin-3-yl)-5-(3,5-dimethylisoxazol-4-yl)-1H-pyrrolo[2,3-b]pyridin-3-yl)-2-fluoro-5-(trifluoromethoxy)benzoic acid] | 6.00 to 10.00 |
| CCc1onc(C)c1-c1cnc2c(c1)c(-c1ccc(C(=O)O)cc1OC(F)(F)F)cn2C1CCOCC1 [P-0401, 4-(5-(5-ethyl-3-methylisoxazol-4-yl)-1-(tetrahydro-2H-pyran-4-yl)-1H-pyrrolo[2,3-b]pyridin-3-yl)-3-(trifluoromethoxy)benzoic acid] | 6.00 to 10.00 |
| CCOc1nc(C(=O)O)c(Cl)cc1-c1cn([C@H]2CCOC2)c2ncc(-c3c(C)noc3C)cc12 [P-0406, (S)-3-chloro-5-(5-(3,5-dimethylisoxazol-4-yl)-1-(tetrahydrofuran-3-yl)-1H-pyrrolo[2,3-b]pyridin-3-yl)-6-ethoxypicolinic acid] | 6.00 to 10.00 |
| CCOc1cc(C(=O)OC)nc(OCC)c1-c1cn(-c2ccc(F)cc2F)c2ncc(-c3c(C)noc3C)cc12 [P-0432, methyl 5-(1-(2,4-difluorophenyl)-5-(3,5-dimethylisoxazol-4-yl)-1H-pyrrolo[2,3-b]pyridin-3-yl)-4,6-diethoxypicolinate] | 6.00 to 10.00 |
| CCOc1nc(C(=O)O)cc(C)c1-c1cn(C2CCOCC2)c2ncc(-c3c(C)noc3C)cc12 [P-0411, 5-(5-(3,5-dimethylisoxazol-4-yl)-1-(tetrahydro-2H-pyran-4-yl)-1H-pyrrolo[2,3-b]pyridin-3-yl)-6-ethoxy-4-methylpicolinic acid] | 6.00 to 10.00 |
| Cc1noc(C)c1-c1cnc2c(c1)c(-c1c(Cl)cc(C(=O)O)cc1OC(F)(F)F)cn2-c1ncccc1C#N [P-0395, 3-chloro-4-(1-(3-cyanopyridin-2-yl)-5-(3,5-dimethylisoxazol-4-yl)-1H-pyrrolo[2,3-b]pyridin-3-yl)-5-(trifluoromethoxy)benzoic acid] | 6.00 to 10.00 |
| COC(=O)c1cc(-n2cc(Cc3ccccc3)c3ncc(-c4c(C)noc4C)cc32)ccn1 [P-0052, methyl 4-(3-benzyl-6-(3,5-dimethylisoxazol-4-yl)-1H-pyrrolo[3,2-b]pyridin-1-yl)picolinate] | 6.00 to 10.00 |
| CCOc1cc(C(=O)O)nc(OCC)c1-n1cc(-c2ccc(F)cc2F)c2ncc(-c3c(C)noc3C)cc21 [P-0431, 5-(3-(2,4-difluorophenyl)-6-(3,5-dimethylisoxazol-4-yl)-1H-pyrrolo[3,2-b]pyridin-1-yl)-4,6-diethoxypicolinic acid] | 6.00 to 10.00 |
| Cc1nnn(C)c1-c1cnc2c(c1)c(-c1ccc(C(=O)O)cc1OC1CC1)cn2C1CCOCC1 [P-0413, 3-cyclopropoxy-4-(5-(1,4-dimethyl-1H-1,2,3-triazol-5-yl)-1-(tetrahydro-2H-pyran-4-yl)-1H-pyrrolo[2,3-b]pyridin-3-yl)benzoic acid] | 6.00 to 10.00 |
| CCOc1cc(C(=O)O)nc(OCC)c1-c1cn(-c2cn(CC)nc2C)c2ncc(-c3c(C)noc3C)cc12 [P-0430, 5-(5-(3,5-dimethylisoxazol-4-yl)-1-(1-ethyl-3-methyl-1H-pyrazol-4-yl)-1H-pyrrolo[2,3-b]pyridin-3-yl)-4,6-diethoxypicolinic acid] | 6.00 to 10.00 |
